Data taken from BindingDB's records for doi:10.7270/Q2X065P9 (Methylgene, 2012).
“And” between values parts separate entries of the source, which are not always exact repeats. Equal entries are not always repeated.

Columns and labels:
[1] = molecular target: Hepatocyte growth factor receptor (Homo sapiens, UniProt P08581); experiment: Inhibition Assay
Text: (§1) Inhibition assay using kinase inhibitors.

[2] = molecular target: High affinity nerve growth factor receptor (Homo sapiens, UniProt P04629); experiment: Inhibition Assay
High affinity nerve growth factor receptor, sequence (P04629 whole entry): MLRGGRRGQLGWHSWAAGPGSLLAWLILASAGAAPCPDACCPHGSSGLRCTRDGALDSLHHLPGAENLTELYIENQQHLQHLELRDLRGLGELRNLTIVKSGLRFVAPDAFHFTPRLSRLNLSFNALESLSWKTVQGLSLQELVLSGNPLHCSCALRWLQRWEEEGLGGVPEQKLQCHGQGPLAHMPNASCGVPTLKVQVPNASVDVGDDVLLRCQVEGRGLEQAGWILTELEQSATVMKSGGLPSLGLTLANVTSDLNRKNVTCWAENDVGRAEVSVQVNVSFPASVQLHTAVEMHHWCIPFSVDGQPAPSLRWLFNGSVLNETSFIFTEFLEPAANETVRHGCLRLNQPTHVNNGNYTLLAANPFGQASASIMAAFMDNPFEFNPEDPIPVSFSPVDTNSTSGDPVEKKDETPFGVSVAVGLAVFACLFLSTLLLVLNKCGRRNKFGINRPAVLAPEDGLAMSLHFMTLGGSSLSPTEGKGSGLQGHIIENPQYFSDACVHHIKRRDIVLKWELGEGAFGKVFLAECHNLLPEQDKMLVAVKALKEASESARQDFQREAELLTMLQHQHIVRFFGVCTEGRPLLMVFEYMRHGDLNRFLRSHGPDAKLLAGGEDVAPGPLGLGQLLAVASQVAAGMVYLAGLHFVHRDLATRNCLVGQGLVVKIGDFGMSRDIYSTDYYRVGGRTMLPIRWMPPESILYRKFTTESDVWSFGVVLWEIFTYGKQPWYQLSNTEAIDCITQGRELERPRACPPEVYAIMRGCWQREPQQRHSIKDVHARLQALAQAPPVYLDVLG
Text: as §1

Hepatocyte growth factor receptor, sequence (P08581 whole entry): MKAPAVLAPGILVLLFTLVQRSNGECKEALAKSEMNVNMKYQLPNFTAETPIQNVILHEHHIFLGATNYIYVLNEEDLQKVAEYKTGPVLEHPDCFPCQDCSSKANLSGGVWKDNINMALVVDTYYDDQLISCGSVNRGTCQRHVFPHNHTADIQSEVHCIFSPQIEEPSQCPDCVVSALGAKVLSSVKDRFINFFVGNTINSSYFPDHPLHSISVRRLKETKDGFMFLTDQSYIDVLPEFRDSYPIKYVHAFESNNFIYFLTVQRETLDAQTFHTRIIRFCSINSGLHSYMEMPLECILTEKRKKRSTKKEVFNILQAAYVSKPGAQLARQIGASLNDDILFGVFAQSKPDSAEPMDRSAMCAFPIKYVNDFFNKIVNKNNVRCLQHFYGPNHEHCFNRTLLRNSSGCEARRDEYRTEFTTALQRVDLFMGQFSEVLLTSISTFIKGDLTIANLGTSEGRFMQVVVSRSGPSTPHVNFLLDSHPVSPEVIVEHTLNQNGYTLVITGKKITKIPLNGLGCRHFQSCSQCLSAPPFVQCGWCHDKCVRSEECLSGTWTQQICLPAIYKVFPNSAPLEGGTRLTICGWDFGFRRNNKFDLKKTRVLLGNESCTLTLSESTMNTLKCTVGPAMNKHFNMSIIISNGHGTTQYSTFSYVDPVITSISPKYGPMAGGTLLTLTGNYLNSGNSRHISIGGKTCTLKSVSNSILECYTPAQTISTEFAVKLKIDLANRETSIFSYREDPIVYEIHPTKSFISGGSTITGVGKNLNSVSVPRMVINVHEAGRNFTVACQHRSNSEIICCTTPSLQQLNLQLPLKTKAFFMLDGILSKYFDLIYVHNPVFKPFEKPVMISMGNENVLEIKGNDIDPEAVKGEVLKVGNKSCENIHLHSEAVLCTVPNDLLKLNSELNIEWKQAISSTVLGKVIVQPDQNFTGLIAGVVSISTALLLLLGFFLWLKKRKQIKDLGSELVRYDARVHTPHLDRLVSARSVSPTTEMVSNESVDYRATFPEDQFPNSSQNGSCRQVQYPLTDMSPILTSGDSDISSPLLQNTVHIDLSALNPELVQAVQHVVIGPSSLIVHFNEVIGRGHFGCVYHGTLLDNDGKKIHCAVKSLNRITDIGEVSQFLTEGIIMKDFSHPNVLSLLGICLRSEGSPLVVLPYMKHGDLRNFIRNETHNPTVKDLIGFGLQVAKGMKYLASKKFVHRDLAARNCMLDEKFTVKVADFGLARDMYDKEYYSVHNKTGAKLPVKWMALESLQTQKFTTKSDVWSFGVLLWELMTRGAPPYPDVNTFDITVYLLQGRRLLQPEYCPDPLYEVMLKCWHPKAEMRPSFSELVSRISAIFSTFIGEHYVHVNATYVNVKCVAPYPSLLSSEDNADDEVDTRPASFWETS

| SMILES | IC50 [1] | IC50 [2] [µM] |
| --- | --- | --- |
| O=C(Nc1cc(Oc2ccc(NC(=O)N3CCN(c4ccccc4)C3=O)cc2F)ccn1)N1CCCC1 [Oxo-3-phenylimidazolidine-1-carboxamide, 4] | 0.23 µM | – |
| O=C(Nc1cc(Oc2ccc(NC(=O)N3CCN(c4ccccc4)C3=O)cc2F)ncn1)N1CCCC1 [Oxo-3-phenylimidazolidine-1-carboxamide, 3] | 0.15 µM | – |
| CC(=O)Nc1cc(Oc2ccc(NC(=O)N3CCN(c4ccccc4)C3=O)cc2)ccn1 [2-oxoimidazolidine-1-carboxamide, 5] | – | 0.004 |
| CCn1cnc(-c2cc3nccc(Oc4ccc(NC(=O)N5CCN(c6ccccc6)C5=O)cc4F)c3s2)c1 | 0.01 µM | – |
| COc1cc2nccc(Oc3ccc(NC(=O)N4CCN(c5ccccc5)C4=O)cc3F)c2cc1OC | 0.01 µM | – |
| Nc1cc(Oc2ccc(NC(=O)N3CCN(c4ccccc4)C3=O)cc2)ccn1 [2-oxoimidazolidine-1-carboxamide, 13] | – | 0.02 |
| CNC(=O)Nc1cc(Oc2ccc(NC(=O)N3CCN(c4ccc(F)cc4)C3=O)cc2)ccn1 [2-oxoimidazolidine-1-carboxamide, 16] | – | 0.002 |
| CC(=O)Nc1cc(Oc2ccc(NC(=O)N3CCN(c4ccc(F)cc4)C3=O)cc2)ccn1 [2-oxoimidazolidine-1-carboxamide, 14] | – | 0.003 |
| O=C(NCCN1CCCC1)Nc1cc(Oc2ccc(NC(=O)N3CCN(c4ccc(F)cc4)C3=O)cc2)ccn1 [2-oxoimidazolidine-1-carboxamide, 17] | – | 0.004 |
| CNC(=O)Nc1cc(Oc2ccc(NC(=O)N3CCN(c4ccccc4)C3=O)cc2)ccn1 [2-oxoimidazolidine-1-carboxamide, 15] | – | 0.005 |
| CC(=O)Nc1cc(Oc2ccc(NC(=O)N3CCN(c4ccccc4)C3=O)cc2F)ccn1 [Oxo-3-phenylimidazolidine-1-carboxamide, 5] | 0.31 µM and 2.5 µM | – |
